Reference: ChEMBL document CHEMBL1201862, “PubChem BioAssay data set” (2004)
The source made the active and inactive calls.

Experiments:
[1] = target: T1, SUMO-activating enzyme (Homo sapiens, UniProt Q9UBT2); test: blockers of UBC9-mediated SUMO conjugation – biochemical, AlphaScreen, SUMOylation inhibitor project, confirmation (AID 2018); format: functional
[2] = target: T1, SUMO-activating enzyme; test: blockers of SAE1/SAE2–UBC9 SUMO transfer – biochemical, HTRF, uHTS, primary screen (AID 2006); format: protein-complex assay
[3] = target: T2, Tyrosine-protein phosphatase non-receptor type 22 (Homo sapiens, UniProt Q9Y2R2); test: SAR LYP1 Fluorescent Assay using pCAP substrate for In Vitro dose response studies - Set 2. [Related pubchem assays (depositor defined):AID1779, AID1784, AID2135, AID449727]; format: functional
T2 sequence (Q9Y2R2 whole entry): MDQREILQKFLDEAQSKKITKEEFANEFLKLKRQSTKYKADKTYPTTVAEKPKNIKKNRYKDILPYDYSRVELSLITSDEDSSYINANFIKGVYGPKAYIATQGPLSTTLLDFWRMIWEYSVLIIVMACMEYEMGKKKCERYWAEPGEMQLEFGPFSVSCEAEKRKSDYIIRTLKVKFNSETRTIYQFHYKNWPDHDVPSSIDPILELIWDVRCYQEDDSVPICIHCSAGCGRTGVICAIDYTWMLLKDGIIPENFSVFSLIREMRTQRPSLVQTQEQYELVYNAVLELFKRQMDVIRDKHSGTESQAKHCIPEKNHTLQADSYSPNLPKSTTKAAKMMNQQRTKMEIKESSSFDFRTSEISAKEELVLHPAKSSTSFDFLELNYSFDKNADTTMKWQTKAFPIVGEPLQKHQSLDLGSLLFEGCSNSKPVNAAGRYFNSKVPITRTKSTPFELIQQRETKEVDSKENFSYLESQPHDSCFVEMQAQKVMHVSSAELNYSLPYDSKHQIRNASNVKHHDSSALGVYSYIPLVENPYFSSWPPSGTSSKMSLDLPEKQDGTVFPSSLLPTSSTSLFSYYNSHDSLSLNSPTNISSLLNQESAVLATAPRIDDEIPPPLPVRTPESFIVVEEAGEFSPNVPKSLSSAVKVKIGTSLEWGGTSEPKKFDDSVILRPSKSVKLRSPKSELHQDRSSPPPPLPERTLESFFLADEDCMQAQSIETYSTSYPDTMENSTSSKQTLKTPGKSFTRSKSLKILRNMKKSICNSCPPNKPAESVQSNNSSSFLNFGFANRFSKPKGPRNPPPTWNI

[4] = target: T3, Tyrosine-protein phosphatase non-receptor type 12 (Homo sapiens, UniProt Q05209); test: SAR Selectivity Analysis of small molecule inhibitors of PEST using pCAP in a fluorescence assay. [Related pubchem assays (depositor defined):AID1779, AID1784, AID2135]; format: functional
T3 sequence (Q05209 whole entry): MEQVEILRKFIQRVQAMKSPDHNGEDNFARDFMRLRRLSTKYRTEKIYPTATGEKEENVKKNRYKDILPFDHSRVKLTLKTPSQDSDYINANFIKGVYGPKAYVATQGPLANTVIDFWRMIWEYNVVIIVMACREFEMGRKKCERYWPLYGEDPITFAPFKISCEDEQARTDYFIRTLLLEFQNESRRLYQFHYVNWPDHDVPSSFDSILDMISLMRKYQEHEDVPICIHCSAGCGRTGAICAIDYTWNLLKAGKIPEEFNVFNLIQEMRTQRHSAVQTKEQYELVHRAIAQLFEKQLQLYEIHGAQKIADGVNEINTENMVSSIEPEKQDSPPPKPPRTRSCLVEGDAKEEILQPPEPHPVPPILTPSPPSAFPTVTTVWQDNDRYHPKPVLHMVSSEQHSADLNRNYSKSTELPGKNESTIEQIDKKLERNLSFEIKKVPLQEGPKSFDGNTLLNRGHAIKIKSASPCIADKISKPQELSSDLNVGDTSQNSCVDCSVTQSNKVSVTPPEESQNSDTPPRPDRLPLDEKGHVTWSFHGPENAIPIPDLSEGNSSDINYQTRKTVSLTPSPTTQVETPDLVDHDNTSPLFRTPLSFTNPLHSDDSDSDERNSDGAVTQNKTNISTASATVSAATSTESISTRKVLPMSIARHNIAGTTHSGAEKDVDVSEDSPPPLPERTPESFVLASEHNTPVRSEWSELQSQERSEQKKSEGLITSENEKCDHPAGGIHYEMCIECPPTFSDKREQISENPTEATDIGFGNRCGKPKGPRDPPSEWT

[5] = target: T2, Tyrosine-protein phosphatase non-receptor type 22; test: SAR LYP1 Fluorescent Assay using OMFP substrate for In Vitro dose response studies - Set 3. [Related pubchem assays (depositor defined):AID1779, AID1784, AID2140, AID2686]; format: functional
[6] = target: T4, Tyrosine-protein phosphatase non-receptor type 7 (Homo sapiens, UniProt P35236); test: inhibition of hematopoietic tyrosine phosphatase HePTP – biochemical, set 2, SAR follow-up (AID 449736); format: functional
T4 sequence (P35236 whole entry): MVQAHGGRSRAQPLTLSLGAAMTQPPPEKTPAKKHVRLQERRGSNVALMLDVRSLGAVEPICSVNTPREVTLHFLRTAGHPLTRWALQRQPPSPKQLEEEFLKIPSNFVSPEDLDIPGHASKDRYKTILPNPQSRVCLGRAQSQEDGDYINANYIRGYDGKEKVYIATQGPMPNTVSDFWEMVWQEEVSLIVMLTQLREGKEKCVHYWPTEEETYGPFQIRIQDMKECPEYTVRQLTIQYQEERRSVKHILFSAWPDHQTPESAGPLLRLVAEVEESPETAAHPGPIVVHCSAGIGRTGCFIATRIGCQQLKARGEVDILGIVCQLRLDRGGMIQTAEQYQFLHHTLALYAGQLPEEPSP

[7] = target: T2, Tyrosine-protein phosphatase non-receptor type 22; test: inhibition of lymphoid tyrosine phosphatase LYP – biochemical, pCAP fluorogenic substrate, fluorescence, set 3, SAR follow-up (AID 449727); format: functional
[8] = target: T2, Tyrosine-protein phosphatase non-receptor type 22; test: SAR LYP1 Fluorescent Assay using OMFP substrate for In Vitro dose response studies - Set 2. [Related pubchem assays (depositor defined):AID1779, AID1784, AID2140, AID449726, AID488869]; format: functional
[9] = target: T5, Small ubiquitin-related modifier 1 (Homo sapiens, UniProt P63165); test: SUMO1 protein interaction blockers, potency – biochemical, fluorescence polarization, uHTS hits, dose response (AID 624382); format: functional; details: read-out: IC50_Mean
T5 sequence (P63165 whole entry): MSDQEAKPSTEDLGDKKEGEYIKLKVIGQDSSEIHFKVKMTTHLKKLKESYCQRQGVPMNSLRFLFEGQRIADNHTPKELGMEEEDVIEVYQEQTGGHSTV

[10] = target: T5, Small ubiquitin-related modifier 1; test: SUMO1 protein-protein binding blockers, potency – biochemical, FRET, dose response (AID 624383); format: functional; details: read-out: IC50_Mean
[11] = target: Intestinal-type alkaline phosphatase (Homo sapiens, UniProt P09923); test: human intestinal alkaline phosphatase activators, dose response, biochemical, luminescence, uHTS hits (AID 463120); format: functional
Sequence of Intestinal-type alkaline phosphatase (P09923 whole entry, the tested form may be a part): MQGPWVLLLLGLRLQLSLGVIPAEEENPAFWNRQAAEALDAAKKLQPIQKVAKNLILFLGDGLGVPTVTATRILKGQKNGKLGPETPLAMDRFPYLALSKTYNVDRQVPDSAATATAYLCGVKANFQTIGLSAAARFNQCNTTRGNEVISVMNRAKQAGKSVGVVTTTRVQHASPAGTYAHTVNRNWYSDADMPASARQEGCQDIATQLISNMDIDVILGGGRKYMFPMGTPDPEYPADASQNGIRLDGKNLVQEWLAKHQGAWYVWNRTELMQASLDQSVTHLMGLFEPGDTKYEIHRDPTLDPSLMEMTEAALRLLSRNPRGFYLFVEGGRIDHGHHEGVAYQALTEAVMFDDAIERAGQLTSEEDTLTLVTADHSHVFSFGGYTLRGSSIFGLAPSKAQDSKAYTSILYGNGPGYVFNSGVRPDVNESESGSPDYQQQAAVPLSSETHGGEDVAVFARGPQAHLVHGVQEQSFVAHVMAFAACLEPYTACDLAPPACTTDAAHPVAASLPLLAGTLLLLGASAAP

[12] = target: T6, Sentrin-specific protease 1 (Homo sapiens, UniProt Q9P0U3); test: SENP1 catalytic domain blockers, concentration series – biochemical, kinetic FRET, dose response (AID 651697); format: functional; details: read-out: IC50_Mean
T6 sequence (Q9P0U3 whole entry): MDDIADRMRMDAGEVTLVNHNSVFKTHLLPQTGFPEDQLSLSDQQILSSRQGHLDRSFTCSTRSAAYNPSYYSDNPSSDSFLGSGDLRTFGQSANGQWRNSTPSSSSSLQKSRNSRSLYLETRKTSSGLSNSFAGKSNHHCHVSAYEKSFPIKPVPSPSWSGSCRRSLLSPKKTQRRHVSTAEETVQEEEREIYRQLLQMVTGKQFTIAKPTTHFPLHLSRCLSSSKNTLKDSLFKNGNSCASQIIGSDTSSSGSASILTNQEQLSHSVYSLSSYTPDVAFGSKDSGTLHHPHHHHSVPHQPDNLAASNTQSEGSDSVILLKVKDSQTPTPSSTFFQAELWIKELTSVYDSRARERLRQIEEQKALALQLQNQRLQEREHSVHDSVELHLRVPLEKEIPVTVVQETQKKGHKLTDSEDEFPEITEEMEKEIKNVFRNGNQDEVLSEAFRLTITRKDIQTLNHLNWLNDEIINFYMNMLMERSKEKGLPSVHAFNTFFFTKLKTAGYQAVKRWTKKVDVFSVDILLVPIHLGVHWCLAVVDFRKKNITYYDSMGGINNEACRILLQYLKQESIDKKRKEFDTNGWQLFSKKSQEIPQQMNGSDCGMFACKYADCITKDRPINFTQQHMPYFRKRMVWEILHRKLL

[13] = target: T6, Sentrin-specific protease 1; test: Dose response confirmation of small molecule inhibitors of the catalytic domain of the SUMO protease, SENP1 in a FRET assay.; format: functional; details: read-out: IC50_Mean
[14] = target: T7, Kappa-type opioid receptor (Homo sapiens, UniProt P41145); test: SAR analysis of small molecule antagonists of the kappa opioid receptor via a luminescent beta-arrestin assay - Set 4. [Related pubchem assays (depositor defined):AID1777, AID1778, AID1785, AID1786, AID1966, AID2133, AID2136, AID2285]; format: functional
T7 sequence (P41145 whole entry): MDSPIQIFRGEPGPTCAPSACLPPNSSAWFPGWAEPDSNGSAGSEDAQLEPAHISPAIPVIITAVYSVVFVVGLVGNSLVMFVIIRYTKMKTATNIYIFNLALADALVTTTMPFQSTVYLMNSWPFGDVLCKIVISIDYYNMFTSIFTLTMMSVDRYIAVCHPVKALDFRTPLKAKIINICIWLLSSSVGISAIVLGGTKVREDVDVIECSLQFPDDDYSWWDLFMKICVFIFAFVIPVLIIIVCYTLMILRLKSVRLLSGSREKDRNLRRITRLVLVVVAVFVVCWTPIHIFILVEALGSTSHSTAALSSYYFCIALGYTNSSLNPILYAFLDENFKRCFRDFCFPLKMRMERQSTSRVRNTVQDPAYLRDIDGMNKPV

[15] = target: T7, Kappa-type opioid receptor; test: SAR analysis of small molecule antagonists of the kappa opioid receptor via a luminescent beta-arrestin assay - Set 5. [Related pubchem assays (depositor defined):AID1778, AID1785]; format: functional
[16] = target: Voltage-dependent T-type calcium channel subunit alpha-1H (Homo sapiens, UniProt O95180); test: human CACNA1H calcium influx blockade – cell-based, synthetic library set 2, HEK293 HH8, Fluo-4, SAR follow-up (AID 493023); format: functional
Sequence of Voltage-dependent T-type calcium channel subunit alpha-1H (O95180 whole entry): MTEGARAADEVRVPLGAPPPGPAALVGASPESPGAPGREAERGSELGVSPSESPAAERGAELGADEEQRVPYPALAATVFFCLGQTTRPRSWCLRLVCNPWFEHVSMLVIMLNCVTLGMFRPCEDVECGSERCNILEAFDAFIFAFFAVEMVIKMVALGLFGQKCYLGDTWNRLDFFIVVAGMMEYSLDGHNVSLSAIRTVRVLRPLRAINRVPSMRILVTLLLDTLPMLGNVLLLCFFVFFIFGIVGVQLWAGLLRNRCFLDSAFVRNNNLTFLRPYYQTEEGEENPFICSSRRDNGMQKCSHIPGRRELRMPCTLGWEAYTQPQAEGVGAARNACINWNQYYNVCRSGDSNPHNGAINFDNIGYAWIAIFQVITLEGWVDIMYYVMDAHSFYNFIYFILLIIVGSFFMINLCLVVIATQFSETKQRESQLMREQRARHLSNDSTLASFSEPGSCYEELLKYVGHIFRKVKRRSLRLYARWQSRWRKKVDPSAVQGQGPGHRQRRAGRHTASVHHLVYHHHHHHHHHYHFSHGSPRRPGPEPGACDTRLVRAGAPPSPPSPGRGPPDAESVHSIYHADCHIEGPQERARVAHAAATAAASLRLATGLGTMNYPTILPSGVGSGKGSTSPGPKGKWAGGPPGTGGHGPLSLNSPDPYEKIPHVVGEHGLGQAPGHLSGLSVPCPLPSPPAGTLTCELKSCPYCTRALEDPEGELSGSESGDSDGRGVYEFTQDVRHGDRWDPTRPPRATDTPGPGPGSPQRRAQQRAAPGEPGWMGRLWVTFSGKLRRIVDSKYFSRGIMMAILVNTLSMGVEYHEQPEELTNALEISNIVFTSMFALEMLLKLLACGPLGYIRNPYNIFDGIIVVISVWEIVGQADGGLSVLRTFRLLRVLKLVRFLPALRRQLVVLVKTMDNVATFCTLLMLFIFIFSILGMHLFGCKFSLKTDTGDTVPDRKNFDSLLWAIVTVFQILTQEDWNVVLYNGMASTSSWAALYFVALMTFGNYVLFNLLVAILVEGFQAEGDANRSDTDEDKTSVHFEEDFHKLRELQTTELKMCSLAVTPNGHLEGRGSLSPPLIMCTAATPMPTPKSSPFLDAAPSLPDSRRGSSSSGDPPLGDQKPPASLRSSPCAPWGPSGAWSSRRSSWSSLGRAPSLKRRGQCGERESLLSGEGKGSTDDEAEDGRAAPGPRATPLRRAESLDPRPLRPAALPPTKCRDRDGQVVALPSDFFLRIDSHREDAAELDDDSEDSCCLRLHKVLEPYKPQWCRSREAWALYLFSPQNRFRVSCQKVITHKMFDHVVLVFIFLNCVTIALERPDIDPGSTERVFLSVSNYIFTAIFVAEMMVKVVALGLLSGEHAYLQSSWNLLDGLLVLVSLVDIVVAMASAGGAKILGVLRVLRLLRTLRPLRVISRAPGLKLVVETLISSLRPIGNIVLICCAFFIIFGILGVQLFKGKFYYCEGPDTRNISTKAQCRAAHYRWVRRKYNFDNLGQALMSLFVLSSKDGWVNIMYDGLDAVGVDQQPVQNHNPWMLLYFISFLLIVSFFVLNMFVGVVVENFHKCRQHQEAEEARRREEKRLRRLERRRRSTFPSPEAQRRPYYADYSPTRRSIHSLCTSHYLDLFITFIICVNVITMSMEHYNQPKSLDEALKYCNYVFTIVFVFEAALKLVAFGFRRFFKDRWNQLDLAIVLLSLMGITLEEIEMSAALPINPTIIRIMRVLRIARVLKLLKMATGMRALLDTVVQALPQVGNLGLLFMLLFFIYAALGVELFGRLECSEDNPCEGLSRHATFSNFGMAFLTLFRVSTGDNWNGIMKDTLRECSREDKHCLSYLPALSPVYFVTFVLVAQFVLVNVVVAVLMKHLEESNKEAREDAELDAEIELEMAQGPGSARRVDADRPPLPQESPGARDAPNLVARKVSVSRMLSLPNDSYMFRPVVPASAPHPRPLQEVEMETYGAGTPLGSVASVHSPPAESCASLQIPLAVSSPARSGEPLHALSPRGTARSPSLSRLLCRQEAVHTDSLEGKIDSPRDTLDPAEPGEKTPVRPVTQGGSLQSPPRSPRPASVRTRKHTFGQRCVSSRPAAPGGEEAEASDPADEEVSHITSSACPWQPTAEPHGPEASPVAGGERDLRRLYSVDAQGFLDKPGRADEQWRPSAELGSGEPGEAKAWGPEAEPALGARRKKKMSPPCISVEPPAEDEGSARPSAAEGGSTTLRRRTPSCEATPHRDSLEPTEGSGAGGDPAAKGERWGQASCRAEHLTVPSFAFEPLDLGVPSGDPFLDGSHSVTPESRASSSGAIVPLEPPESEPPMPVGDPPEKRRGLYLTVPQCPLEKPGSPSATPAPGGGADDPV

[17] = Luminescence Cell-Based Dose Response HTS to Identify Inhibitors of Luciferase Translation or Activity in H4-C Neuroglioblastoma Cells. [Related pubchem assays: 1813 (Primary HTS), 1827 (Project Summary)]; format: functional
[18] = luciferase reporter signal suppression in cells – H4 neuroglioma cells, luminescence, dose response (AID 1990); format: functional, cell-based
[19] = Luminescence Cell-Based Dose Retest to Confirm Activators of 5'UTR Stem-Loop Driven Alpha-Synuclein mRNA Translation in H4 Neuroglioblastoma Cells. [Related pubchem assays (depositor defined):AID1813, AID1829]; format: functional
[20] = ELISA Cell-Based Dose Response to Identify Inhibitors of Alpha-Synuclein Translation in SH-SY5Y Cells. [Related pubchem assays: 1813 (Primary HTS), 1827 (Project Summary)]; format: functional
[21] = Luminescence Cell-Based Dose HTS Response to Identify Inhibitors of 5'UTR Stem-Loop Driven Prion Protein mRNA Translation in H4-C Neuroglioblastoma Cells. [Related pubchem assays (depositor defined):AID1814, AID1827]; format: functional
[22] = Western Blot Cell-Based Dose Response to Identify Inhibitors of […] Alpha-Synuclein Translation in H4 Cells. [Related pubchem assays: 1827 (Project Summary), 1813 (Primary HTS)]
[23] = Luminescence Cell-Based Dose Response HTS to Identify Inhibitors of 5'UTR Stem-Loop Driven Prion Protein mRNA Translation in H4 Neuroglioblastoma Cells. [Related pubchem assays: 1827 (Project Summary), 1813 (Primary HTS)]; format: functional
[24] = alpha-synuclein stem-loop luciferase translation blockers – H4 neuroglioma cells, luminescence, confirmation (AID 1988); format: functional, cell-based
[25] = Luminescence Cell-Based Dose Confirmation HTS to Identify Inhibitors of 5'UTR Stem-Loop Driven Alpha-Synuclein mRNA Translation in H4 Neuroglioblastoma Cells. [Related pubchem assays: 1827 (Project Summary), 1813 (Primary HTS)]; format: functional
[26] = target: T8, Heat shock factor protein 1 (Mus musculus, UniProt P38532); test: enhancement of HSF1-driven luciferase signal – cell-based, NIH3T3, luminescence, dose retest, confirmation (AID 435004); format: functional;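 also: stress induced by proteasome inhibitor MG132 added 30 min after compound; luciferase reporter driven by HSF1 response element in NIH3T3 cells; actives raise luminescence as potentiators of the MG132 stress response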
T8 sequence (P38532 whole entry): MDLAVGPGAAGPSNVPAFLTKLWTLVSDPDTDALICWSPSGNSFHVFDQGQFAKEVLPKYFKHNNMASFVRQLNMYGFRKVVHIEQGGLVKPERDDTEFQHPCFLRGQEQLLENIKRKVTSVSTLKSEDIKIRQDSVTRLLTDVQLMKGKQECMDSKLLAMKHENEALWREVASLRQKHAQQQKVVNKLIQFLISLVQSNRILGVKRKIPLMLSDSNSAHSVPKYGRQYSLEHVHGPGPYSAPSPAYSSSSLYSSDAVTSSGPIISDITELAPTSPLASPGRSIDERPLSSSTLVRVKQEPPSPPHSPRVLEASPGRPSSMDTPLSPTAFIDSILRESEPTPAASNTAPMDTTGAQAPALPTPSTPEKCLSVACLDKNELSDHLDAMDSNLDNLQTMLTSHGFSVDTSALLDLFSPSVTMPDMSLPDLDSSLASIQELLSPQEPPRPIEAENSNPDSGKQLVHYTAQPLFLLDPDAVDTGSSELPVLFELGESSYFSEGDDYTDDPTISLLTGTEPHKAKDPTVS

T1 sequence (Q9UBE0 whole entry): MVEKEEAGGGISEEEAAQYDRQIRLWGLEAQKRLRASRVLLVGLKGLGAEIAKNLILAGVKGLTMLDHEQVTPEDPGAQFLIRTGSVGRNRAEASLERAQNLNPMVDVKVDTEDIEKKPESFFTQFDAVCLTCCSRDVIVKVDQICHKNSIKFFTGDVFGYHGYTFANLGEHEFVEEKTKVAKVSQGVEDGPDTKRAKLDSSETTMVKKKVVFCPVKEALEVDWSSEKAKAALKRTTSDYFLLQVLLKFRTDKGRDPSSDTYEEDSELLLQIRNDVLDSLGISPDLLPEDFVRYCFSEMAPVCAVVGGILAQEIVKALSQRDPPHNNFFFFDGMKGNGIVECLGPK
T1 sequence (Q9UBT2 whole entry): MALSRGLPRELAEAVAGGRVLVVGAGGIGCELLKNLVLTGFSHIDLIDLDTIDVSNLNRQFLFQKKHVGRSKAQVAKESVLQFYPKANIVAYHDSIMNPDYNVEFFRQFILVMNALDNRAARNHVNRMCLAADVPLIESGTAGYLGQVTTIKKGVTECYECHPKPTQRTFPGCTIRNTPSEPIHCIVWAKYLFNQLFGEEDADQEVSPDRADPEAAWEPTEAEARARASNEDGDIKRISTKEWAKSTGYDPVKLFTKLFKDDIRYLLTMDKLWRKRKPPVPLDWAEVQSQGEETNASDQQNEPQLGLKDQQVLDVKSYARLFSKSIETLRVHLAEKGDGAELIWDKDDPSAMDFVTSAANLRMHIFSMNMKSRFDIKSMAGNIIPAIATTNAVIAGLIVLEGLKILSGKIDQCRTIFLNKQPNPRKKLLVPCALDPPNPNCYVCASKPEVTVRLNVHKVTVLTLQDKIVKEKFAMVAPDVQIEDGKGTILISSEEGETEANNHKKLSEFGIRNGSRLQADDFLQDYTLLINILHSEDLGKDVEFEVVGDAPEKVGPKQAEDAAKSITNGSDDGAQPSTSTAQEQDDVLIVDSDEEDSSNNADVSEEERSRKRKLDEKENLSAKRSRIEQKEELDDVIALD

Q: With COc1cc(/C=C(\C#N)C(=O)Nc2cccc(C(=O)O)c2)ccc1OCc1ccc(Cl)cc1 as the compound, how does the IC50 [1] read?
A: 3.61 µM (active)

Q: And the IC50 [2]?
A: 17.5 µM (active)

Q: And the IC50 [3]?
A: 6.89 µM (active)

Q: And the IC50 [4]?
A: 2.6 µM (active)

Q: And the IC50 [5]?
A: 2.6 µM (active)

Q: And the IC50 [6]?
A: 0.557 µM (active)

Q: And the IC50 [7]?
A: 6.59 µM (active)

Q: What about the IC50 [8] of the same compound?
A: 4.78 µM (active)

Q: And the IC50 [9]?
A: > 66.6 µM (inactive)

Q: What about the IC50 [10] of the same compound?
A: 13 µM (active)

Q: What does the source list for O=C(NNc1nc2c(F)cccc2s1)c1cc(=O)c2ccccc2o1?
A: EC50 [11]: 10.3 µM (active); IC50 [12]: 6.67 µM (active); IC50 [13]: 7.06 µM (active)

Q: Which results are given for Cc1ccc(S(=O)(=O)NCc2ccc(C(=O)NCCN(C)[C@H](C)c3ccccc3)cc2)cc1?
A: IC50 [14]: 3.38 µM (active); IC50 [15]: 2.4 µM (active)

Q: For O=C(N[C@H]1CCCN(Cc2ccccc2)C1)c1cc(Cl)cc(Cl)c1, which EC50 [16] is on record?
A: 10 µM (active)

Q: What does the source list for CN(C)c1nc(N)nc(CSc2nnnn2-c2cccc3ccccc23)n1?
A: EC50 [17]: > 195 µM (not active); EC50 [18]: > 120 µM (not active); EC50 [19]: 1.81 µM (inconclusive); EC50 [20]: < 0.006 µM (active); EC50 [21]: > 195 µM (inactive); EC50 [22]: < 1 µM (active); EC50 [23]: > 120 µM (not active); EC50 [24]: 3.5 µM (active); EC50 [25]: 1.81 µM (active); EC50 [26]: > 260 µM (inactive)
